# “And” between values parts separate entries of the source, which are not always exact repeats. Identical values can stand only once.
# Tests used:
# murine WT β2AR = target: T1, murine WT β2AR (Mus musculus, UniProt P18762); assay: GloSensor cAMP, constitutive activity of overexpressed murine WT β2AR; format: cell-based
# T1 construct: expressed in transfected cells; HEK293 GloSensor cells (cAMP assay)
# murine V133F mutant β2AR = target: T2, murine V133F mutant β2AR (Mus musculus, UniProt P18762, V133F); assay: GloSensor cAMP, constitutive activity of overexpressed murine V133F mutant β2AR; format: cell-based; conditions: Cmpd-6 at 5 μM, no orthosteric agonist
# T2 construct: expressed in transfected cells; HEK293 GloSensor cells (cAMP assay)
# T2 sequence (P18762 whole entry V133F): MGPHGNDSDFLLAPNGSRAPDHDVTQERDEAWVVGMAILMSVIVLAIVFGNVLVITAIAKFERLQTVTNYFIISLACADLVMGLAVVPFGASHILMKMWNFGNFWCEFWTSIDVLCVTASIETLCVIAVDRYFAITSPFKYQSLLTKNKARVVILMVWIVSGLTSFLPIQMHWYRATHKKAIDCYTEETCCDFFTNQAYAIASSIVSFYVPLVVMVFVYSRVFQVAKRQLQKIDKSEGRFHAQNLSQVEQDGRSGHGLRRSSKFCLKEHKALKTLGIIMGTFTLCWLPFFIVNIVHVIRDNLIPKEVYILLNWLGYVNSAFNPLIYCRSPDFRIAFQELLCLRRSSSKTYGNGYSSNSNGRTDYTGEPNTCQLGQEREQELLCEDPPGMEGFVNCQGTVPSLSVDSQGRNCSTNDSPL
# C57BL/6J naive mice [1] = assay: In vivo bronchoprotection protocol, methacholine-induced airway constriction (flexiVent); design: Newtonian resistance (Rn): unit not given here; conditions: for Newtonian resistance (Rn): Cmpd-6 10 mg/kg i.v., 10 mg/kg
# Description: (§1) For the bronchoprotection protocol (A), bronchospasm was induced by i.v. administration of methacholine (25, 50, 100, 200, and 400 μg/kg). […] General Linear Model repeated measures ANOVA with Tukey’s posthoc test was used to determine the differences of airway responsiveness between DMSO- and Cmpd-6–treated conditions.
# (§2) Airway hyperresponsiveness (AHR) was measured using the forced oscillation technique as described previously ([42]). […] For the bronchoprotection protocol, bronchospasm was induced by jugular vein i.v. administration of increasing doses of methacholine (25, 50, 100, 200, 400 μg/kg). […] Mice were ventilated with 100% oxygen at 150 breaths per minute, constant volume of 8 mL/kg and a 3 cm H2O positive end–expiratory pressure using a computer-controlled small animal ventilator (flexiVent, SCIREQ). The total lung impedance signal collected contained information about the resistance and elastance properties of the lung from which Newtonian resistance (Rn), a good indicator of the luminal diameter of the conducting airways, was calculated using the constant phase model. The heart rate data acquired using EKG electrodes was monitored to assess mouse viability and analgesia throughout the bronchoconstrictor protocols.
# C57BL/6J naive mice [2] = assay: In vivo bronchodilation protocol, albuterol in methacholine-preconstricted airways (flexiVent); conditions: Cmpd-6 10 mg/kg i.v.; methacholine […] + albuterol 1-30 μg/kg
# Description: as §1, §2
# [3] = Solubility by formation of precipitates under the microscope; format: physicochemical
# Description: *Solubility was determined by formation of precipitates observed under the microscope. **Cell […]
# binds an intracellular region of the β2AR. ***Log P, Log of the Partition coefficient that was calculated using ChemDraw Professional (version 22.2, PerkinElmer). DMSO, dimethyl […]
# (1 picture or pasted object on this page, not shown here)
# WT murine β2AR = WT murine β2AR (Mus musculus, UniProt P18762); assay: 125I-CYP radioligand competition binding, WT murine β2AR; conditions: WT Cmpd-6
# WT murine β2AR, sequence (P18762 whole entry): as the sequence (P18762 whole entry V133F) above, with F133V counted along it
# Description: (§3) Statistical analyses were performed using 1-way ANOVA, repeated (related) measures with Tukey’s posthoc test.
# V133F mutant murine β2AR = V133F mutant murine β2AR (Mus musculus, UniProt P18762, V133F); assay: 125I-CYP radioligand competition binding, V133F mutant murine β2AR; conditions: V133F Cmpd-6
# V133F mutant murine β2AR, sequence (P18762 whole entry V133F): as the sequence (P18762 whole entry V133F) above
# Description: as §3
# guinea pig β2AR = guinea pig β2AR (Cavia porcellus, UniProt Q8K4Z4); assay: GloSensor cAMP, constitutive activity of overexpressed guinea pig β2AR
# guinea pig β2AR, sequence (Q8K4Z4 whole entry): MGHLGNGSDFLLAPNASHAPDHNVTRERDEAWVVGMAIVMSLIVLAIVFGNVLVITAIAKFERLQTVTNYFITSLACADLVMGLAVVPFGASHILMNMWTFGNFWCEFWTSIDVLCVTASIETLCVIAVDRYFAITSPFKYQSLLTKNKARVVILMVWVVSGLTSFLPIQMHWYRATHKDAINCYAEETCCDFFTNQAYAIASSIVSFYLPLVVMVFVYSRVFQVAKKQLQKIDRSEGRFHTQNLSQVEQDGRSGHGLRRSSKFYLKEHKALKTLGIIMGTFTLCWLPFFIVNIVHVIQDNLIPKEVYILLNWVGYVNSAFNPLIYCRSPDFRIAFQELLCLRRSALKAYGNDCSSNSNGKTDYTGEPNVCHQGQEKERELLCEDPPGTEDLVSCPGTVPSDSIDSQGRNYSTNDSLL
# T1 sequence (P18762 whole entry): as the sequence (P18762 whole entry V133F) above, with F133V counted along it
smiles,measurement,setting,value
COc1ccc(Sc2ccc(S(=O)(=O)N(C)C(C)C)cc2C(=O)N[C@H](CC(N)=O)Cc2ccc(C(C)(C)C)cc2)cc1 [Cmpd-6],cAMP level (% of ISO-stimulated maximal response),"murine WT β2AR; Cmpd-6 at 5 μM, no orthosteric agonist, Murine WT",25.8782% and 38.8997% and 33.0059% and 37.3496%
same,"cAMP, constitutive activity of overexpressed β2AR (Figure 4C)",murine WT β2AR; Species of β2AR: Murine,25.8782 and 38.8997 and 33.0059 and 37.3496
same,cAMP level (% of ISO-stimulated maximal response),murine V133F mutant β2AR,45.8463% and 58.5082% and 46.5958% and 56.3694%
same,Bronchoprotective effect against methacholine-induced airway resistance,C57BL/6J naive mice [1]; Cmpd-6 10 mg/kg i.v. 10 minutes before methacholine,no bronchoprotective effect
same,Newtonian resistance (Rn),C57BL/6J naive mice [1]; Mch 0 μg/kg,0.362 and 0.310 and 0.287 and 0.300 and 0.311
same,Newtonian resistance (Rn),C57BL/6J naive mice [1]; Mch 25 μg/kg,0.550 and 0.482 and 0.346 and 0.471 and 0.465
same,Newtonian resistance (Rn),C57BL/6J naive mice [1]; Mch 50 μg/kg,0.728 and 0.671 and 0.387 and 0.670 and 0.609
same,Newtonian resistance (Rn),C57BL/6J naive mice [1]; Mch 100 μg/kg,0.886 and 0.904 and 0.565 and 0.976 and 0.931
same,Newtonian resistance (Rn),C57BL/6J naive mice [1]; Mch 200 μg/kg,1.570 and 1.261 and 0.919 and 1.518 and 1.725
same,Newtonian resistance (Rn),C57BL/6J naive mice [1]; Mch 400 μg/kg,1.986 and 1.405 and 1.093 and 1.461 and 1.642
same,Effect on albuterol-mediated bronchodilation,C57BL/6J naive mice [2],no enhancing effect
same,Solubility,[3]; Aqueous,0.032 mM
same,Solubility,[3]; DMSO,100 mM
same,125I-CYP binding (% of maximal),WT murine β2AR; log[ISO] -4 M,0.36% and 0.2162% and 0.04816% and -0.00042%
same,125I-CYP binding (% of maximal),WT murine β2AR; log[ISO] -4.49485 M,1.8839% and 1.834% and 1.807% and 2.135%
same,125I-CYP binding (% of maximal),WT murine β2AR; log[ISO] -5.09691 M,4.237% and 3.492% and 3.782% and 5.55%
same,125I-CYP binding (% of maximal),WT murine β2AR; log[ISO] -5.69897 M,11.5444% and 11.0871% and 11.3959% and 13.7676%
same,125I-CYP binding (% of maximal),WT murine β2AR; log[ISO] -6.30103 M,26.4647% and 27.054% and 29.2061% and 34.2195%
same,125I-CYP binding (% of maximal),WT murine β2AR; log[ISO] -6.90309 M,53.3668% and 53.0846% and 55.6007% and 58.7138%
same,125I-CYP binding (% of maximal),WT murine β2AR; log[ISO] -7.50515 M,77.7987% and 78.0629% and 80.5466% and 83.0218%
same,125I-CYP binding (% of maximal),WT murine β2AR; log[ISO] -8.10721 M,94.1342% and 94.186% and 93.5984% and 92.8613%
same,125I-CYP binding (% of maximal),WT murine β2AR; log[ISO] -8.70927 M,97.914% and 99.3549% and 97.9296% and 99.6433%
same,125I-CYP binding (% of maximal),WT murine β2AR; log[ISO] -9.31133 M,100.454% and 99.5549% and 102.315% and 101.138%
same,125I-CYP binding (% of maximal),WT murine β2AR; log[ISO] -9.91339 M,102.683% and 102.302% and 101.203% and 102.316%
same,125I-CYP binding (% of maximal),WT murine β2AR; no ISO competitor,100.129% and 100.082% and 100.868% and 101.552%
same,125I-CYP binding (% of maximal),V133F mutant murine β2AR; log[ISO] -4 M,0.3208% and 0.5206% and 0.2622% and 0.2602%
same,125I-CYP binding (% of maximal),V133F mutant murine β2AR; log[ISO] -4.49485 M,0.9301% and 1.21% and 0.9752% and 0.9507%
same,125I-CYP binding (% of maximal),V133F mutant murine β2AR; log[ISO] -5.09691 M,1.3005% and 2.025% and 1.333% and 1.6451%
same,125I-CYP binding (% of maximal),V133F mutant murine β2AR; log[ISO] -5.69897 M,2.898% and 2.7378% and 2.508% and 2.41%
same,125I-CYP binding (% of maximal),V133F mutant murine β2AR; log[ISO] -6.30103 M,7.927% and 6.9353% and 6.15% and 6.231%
same,125I-CYP binding (% of maximal),V133F mutant murine β2AR; log[ISO] -6.90309 M,15.2419% and 14.4367% and 12.7613% and 13.8675%
same,125I-CYP binding (% of maximal),V133F mutant murine β2AR; log[ISO] -7.50515 M,33.0019% and 29.7875% and 27.3642% and 30.2603%
same,125I-CYP binding (% of maximal),V133F mutant murine β2AR; log[ISO] -8.10721 M,56.9542% and 53.726% and 49.4673% and 52.7312%
same,125I-CYP binding (% of maximal),V133F mutant murine β2AR; log[ISO] -8.70927 M,79.9915% and 78.4975% and 76.4167% and 78.5935%
same,125I-CYP binding (% of maximal),V133F mutant murine β2AR; log[ISO] -9.31133 M,94.8693% and 96.2982% and 94.9618% and 94.6481%
same,125I-CYP binding (% of maximal),V133F mutant murine β2AR; log[ISO] -9.91339 M,100.835% and 99.7406% and 98.19% and 100.221%
same,125I-CYP binding (% of maximal),V133F mutant murine β2AR; no ISO competitor,103.118% and 101.321% and 102.31% and 102.083%
same,"cAMP, constitutive activity of overexpressed β2AR (Figure 4C)",guinea pig β2AR; Species of β2AR: Guinea pig,48.9693 and 55.2023 and 45.6589 and 55.6328
same,PAM activity in cAMP production induced by constitutive activity of overexpressed guinea pig β2AR,"guinea pig β2AR; no orthosteric agonist, 20 minutes",equivalent to what we observed with the overexpressed human receptor
